In patent publication US9612243B1, “Methods and compositions for targeted two-dimensional western blot analysis for early cancer detection and cancer diagnosis up to ten years in advance of clinical symptoms of malignant disease” (Mor-NuCo Enterprises, Inc., priority 2016, dated 2017):

T1: ENOX2 (Homo sapiens, UniProt Q16206)
T1 sequence (Q16206 1-610): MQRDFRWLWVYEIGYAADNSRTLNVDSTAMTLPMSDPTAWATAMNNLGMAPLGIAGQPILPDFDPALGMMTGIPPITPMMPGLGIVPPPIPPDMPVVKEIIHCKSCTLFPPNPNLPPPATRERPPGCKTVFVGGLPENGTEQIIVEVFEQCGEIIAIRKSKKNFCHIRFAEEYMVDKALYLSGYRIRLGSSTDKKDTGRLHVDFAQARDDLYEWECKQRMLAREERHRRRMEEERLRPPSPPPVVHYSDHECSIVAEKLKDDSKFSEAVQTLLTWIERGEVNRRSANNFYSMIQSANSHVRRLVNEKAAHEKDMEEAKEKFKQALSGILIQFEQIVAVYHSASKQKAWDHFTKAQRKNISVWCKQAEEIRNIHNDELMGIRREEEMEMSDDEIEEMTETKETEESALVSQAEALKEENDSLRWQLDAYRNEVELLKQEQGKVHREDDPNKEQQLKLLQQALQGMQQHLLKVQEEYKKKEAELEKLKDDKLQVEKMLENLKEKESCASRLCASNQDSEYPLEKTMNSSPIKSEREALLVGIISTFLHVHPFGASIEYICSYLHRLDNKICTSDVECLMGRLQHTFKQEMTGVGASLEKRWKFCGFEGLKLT

B1: recombinant scFv: pan ENOX2 recombinant single chain variable region (scFv) antibody carrying an S tag, alkaline phosphatase linked (antibody, V domains shown)
VH: EVKLQESGTEVVKPGASVKLSCKASGYIFTSYDIDWVRQTPEQGLEWIGWIFPGEGSTEYNEKFKGRATLSVDKSSSTAYMELTRLTSEDSAVYFCARGDYYRRYFDLWGQGTTVTVSS
VL: ENVLTQSPAIMSASPGERVTMTCSASSSIRYIYWYQQKPGSSPRLLIYDTSNVAPGVPFRFSGSGSGTSYSLTINRMEAEDAATYYCQEWSGYPYTFGGGTKLELK
modifications: left off: things letters cannot carry; another chain or arm of the molecule; a dimerising Fc or GST; small tags and cut ends
notes: pan ENOX2 recombinant single chain variable region (scFv) antibody carrying an S tag, alkaline phosphatase linked

Key:
ENOX2 [1] = biological target: T1, ENOX2; assay: ENOX2 activity versus NADH concentration, Lineweaver-Burke plot with and without antibody; format: biochemical; conditions: FIG. 2
Excerpt: FIG. 2 is a graph that depicts the relationship of ENOX2 activity and concentration of NADH.

ENOX2 [2] = biological target: T1, ENOX2; assay: 2-D gel electrophoresis/western blot, incubation with 15 μM NADH compared to no NADH; conditions: 15 μM NADH in the assay compared to no NADH, FIG. 1
Description: In order to maintain an active ENOX2 during western blotting with antibody, following blocking for 10 minutes with 1% milk and two rinses with TBST to remove excess milk, reduced pyridine nucleotides [NAD(P)H] were added at a concentration of 15 μM during incubation with the primary scFv antibody. NADH is preferred at a final concentration in the range of 10 μM. Incubation of the blot with antibody with or without shaking at any temperature between 4° C. and 40° C. for times of 1 to 16 hours depending on the concentration of NADH, the temperature and the antibody titer, preferably with incubation at 4° C. overnight (approximately 16 hours) with shaking.

[3] = tested on: heavy (ca. 52 kDa) and light (ca. 25 kDa) immunoglobulin chain proteins; assay: 2-D gel/western blot cross-reactivity with serum proteins; format: binding, human; conditions: on some blots
Excerpt: Separation in the first dimension was by isoelectric focusing over the pH range of 3 to 10 and separation in the second dimension was by 10 percent SDS-PAGE. Isoelectric points of the ENOX2 transcript variants were in the range of 3.2 to 6.3. The principal reactive proteins other than the ENOX2 forms were a 53 kDa isoelectric point pH 4.1, mostly phosphorylated alpha-fetuin (Labeled “R” in FIG. 8) which served as a convenient loading control and isoelectric point reference and a 79-85 kDa, isoelectric point pH 6.8 serotransferrin which served as a second point of reference for loading and as an isoelectric point reference. The two cross reactive reference proteins are present in a majority of sera and plasma of both cancer and non-cancer subjects.
For western blot analysis, 30 μL of sera was added to 120 μL of Rehydration Buffer (7M urea, 2 M thiourea, 2% (w/v) CHAPS [(3-[(3-cholamidopropyl)dimethylammonio]-1-propane-sulfonate), a nondenaturing zwitterionic detergent], 0.5% (w/v) ASB-14 (amidosulfobetaine-14, a zwitterionic detergent), 0.5% (v/v) ampholytes pH 3-10 (Bio-Rad), 0.5% (v/v) immobilized pH gradient (IPG) buffer pH 3-10 (Amersham-Pharmacia Biotech) and 65 mM dithiothreitol). The samples were quickly vortexed to mix sera with Rehydration Buffer. Four to six mg of protein were loaded for analysis. […] Quantitation utilized an algorithm developed for this purpose. […]

| Molecule | NADH concentration at which maximum ENOX2 activity was achieved (ENOX2 [1]) | increase in spot size and density of ENOX2 (ENOX2 [2]) | cross-reactivity with immunoglobulin chain proteins [3] |
| --- | --- | --- | --- |
| NC(=O)C1=CN([C@@H]2O[C@H](COP(=O)(O)OP(=O)(O)OC[C@H]3O[C@@H](n4cnc5c(N)ncnc54)[C@H](O)[C@@H]3O)[C@@H](O)[C@H]2O)C=CC1 [NADH] | about 500 μM | two-fold increase |  |
| B1 |  |  | weakly cross-reactive |
